Results published in ChEMBL document CHEMBL5357036, “Latest developments in coumarin-based anticancer agents: mechanism of action and structure-activity relationship studies” (RSC Med Chem, 2024).
In brackets after ≈: the same amount, converted by molar mass. Values belong to the compound of their own block, whether it stands above or below them.

Key:
HeLa [1] = experiment: Antitumor activity against human HeLa cells assessed as inhibition of cell growth by MTT assay; assay type: functional, cell-based
[2] = Cytotoxicity against green monkey COS-7 cells; assay type: toxicity, cell-based; settings: green monkey (Chlorocebus aethiops)
AGS = experiment: Growth inhibition of human AGS cells assessed as reduction in cell viability measured after 3 days by CCK-8 assay; assay type: functional; settings: 72 h, time 3 day
[3] = test system: KATO III stomach cancer cell line; experiment: Growth inhibition of human KATO III stomach cancer cell line assessed as reduction in cell viability measured after 3 days by CCK-8 assay; assay type: functional; settings: 72 h, time 3 day
SNU1 = experiment: Growth inhibition of human SNU1 cells assessed as reduction in cell viability measured after 3 days by CCK-8 assay; assay type: functional; settings: SNU1, 72 h, time 3 day
SK-OV-3 = experiment: Growth inhibition of human SK-OV-3 cells assessed as reduction in cell viability measured after 3 days by CCK-8 assay; assay type: functional; settings: SK-OV-3, 72 h, time 3 day
OVCAR-8 = experiment: Growth inhibition of human OVCAR-8 cells assessed as reduction in cell viability measured after 3 days by CCK-8 assay; assay type: functional; settings: OVCAR-8, 72 h, time 3 day
BXPC-3 = experiment: Growth inhibition of human BXPC-3 cells assessed as reduction in cell viability measured after 3 days by CCK-8 assay; assay type: functional; settings: BXPC-3, 72 h, time 3 day
PANC-1 = experiment: Growth inhibition of human PANC-1 cells assessed as reduction in cell viability measured after 3 days by CCK-8 assay; assay type: functional; settings: PANC-1, 72 h, time 3 day
T-24 = experiment: Growth inhibition of human T24 cells assessed as reduction in cell viability measured after 3 days by CCK-8 assay; assay type: functional; settings: T-24, 72 h, time 3 day
WiDr = experiment: Growth inhibition of human WiDr cells assessed as reduction in cell viability measured after 3 days by CCK-8 assay; assay type: functional; settings: 72 h, time 3 day
HepG2 [4] = experiment: Growth inhibition of human HepG2 cells assessed as reduction in cell viability measured after 3 days by CCK-8 assay; assay type: functional; settings: HepG2, 72 h, time 3 day
SN12C = experiment: Growth inhibition of human SN12C cells assessed as reduction in cell viability measured after 3 days by CCK-8 assay; assay type: functional; settings: 72 h, time 3 day
K562 = experiment: Growth inhibition of human K562 cells assessed as reduction in cell viability measured after 3 days by CCK-8 assay; assay type: functional; settings: K562, 72 h, time 3 day
HeLa [5] = experiment: Growth inhibition of human HeLa cells assessed as reduction in cell viability measured after 3 days by CCK-8 assay; assay type: functional; settings: 72 h, time 3 day
A549 [6] = experiment: Cytotoxicity against human A549 cells assessed as reduction in cell growth by MTT assay; assay type: functional, cell-based
C6 = experiment: Antiproliferative activity against rat C6 cells assessed as inhibition of cell growth; assay type: functional, cell-based
MCF7 [7] = experiment: Cytotoxicity against human MCF7 cells assessed as reduction in cell viability incubated for 48 hrs by MTT assay; assay type: functional, cell-based; settings: MCF7, 48 h
MCF7 [8] = experiment: Cytotoxicity against human MCF7 cells assessed as reduction in cell growth by MTT assay; assay type: functional, cell-based
MDA-MB-231 = experiment: Anticancer activity against human MDA-MB-231 cells assessed as reduction in cell viability measured after 72 hrs by MTT assay; assay type: functional, cell-based; settings: MDA-MB-231, 72 h
MCF7 [9] = experiment: Anticancer activity against human MCF7 cells assessed as reduction in cell viability by MTT assay; assay type: functional, cell-based
HCT-116 = experiment: Anticancer activity against human HCT-116 cells assessed as reduction in cell viability by MTT assay; assay type: functional, cell-based
HepG2 [10] = experiment: Anticancer activity against human HepG2 cells assessed as reduction in cell viability; assay type: functional, cell-based
DLD-1 = experiment: Anticancer activity against human DLD-1 cells assessed as reduction in cell viability; assay type: functional, cell-based
HepG2 [11] = experiment: Cytotoxicity against human HepG2 cells assessed as growth inhibition measured after 48 hrs by MTT assay; assay type: functional, cell-based; settings: HepG2, 48 h
A549 [12] = experiment: Antiproliferative activity against human A549 cells assessed as reduction in cell viability measured after 24 hrs by MTT assay; assay type: functional, cell-based; settings: A549, 24 h
HeLa [13] = experiment: Anticancer activity against human HeLa cells assessed as reduction in cell viability measured after 72 hrs by MTT assay; assay type: functional, cell-based
MCF7 [14] = experiment: Anticancer activity against human MCF7 cells assessed as reduction in cell viability measured after 72 hrs by MTT assay; assay type: functional, cell-based; settings: MCF7, 72 h
HeLa [15] = experiment: Antiproliferative activity against human HeLa cells assessed as inhibition of cell growth incubated for 72 hrs by MTT assay; assay type: functional, cell-based
HeLa [16] = experiment: Cytotoxicity against human HeLa cells assessed as cell growth inhibition; assay type: functional, cell-based
MCF7 [17] = experiment: Cytotoxicity against human MCF7 cells assessed as cell growth inhibition after 48 hrs by MTT assay; assay type: functional, cell-based; settings: MCF7, 48 h
HepG2 [18] = experiment: Anticancer activity against human HepG2 cells assessed as reduction in cell viability measured after 72 hrs by MTT assay; assay type: functional, cell-based; settings: HepG2, 72 h
HepG2 [19] = experiment: Anticancer activity against human HepG2 cells assessed as reduction in cell viability by MTT assay; assay type: functional, cell-based

SMILES: Cc1c(Cc2ccc(NC(=O)Nc3ccccc3Cl)nc2)c(=O)oc2cc(O)c(C(C)(C)C)cc12
IC50 (A549 [6]): 4380 nM

SMILES: Cc1cn(Cc2cc(=O)oc3ccc(Cl)cc23)c(=O)n(Cc2cc(=O)oc3ccc(Cl)cc23)c1=O
IC50 (C6): 4850 nM

SMILES: O=c1oc2ccccc2c2c1nc(-c1ccccn1)c1occc12
IC50 (MCF7 [7]): 8000 nM

SMILES: Cc1c(Cc2ccc(NC(=O)Nc3ccc(Br)cc3)nc2)c(=O)oc2cc(O)c(C(C)(C)C)cc12
IC50 (MCF7 [8]): 2560 nM

SMILES: COC(=O)c1cc2cc(-c3nc4cc(C)ccn4c3NC(C)(C)C)cc(C(C)C)c2oc1=O
IC50 (MDA-MB-231): 14100 nM

SMILES: CCCCOc1ccc2cc(C(=O)NNC(=O)c3c(C)oc4nc(N(CCC)CCC)n(-c5ccc(C)cc5)c(=O)c34)c(=O)oc2c1
IC50 (HepG2 [11]): 4870 nM

SMILES: CN(C)c1ccc2c(c1)O/C(=C(/C#N)c1cc[n+](C)cn1)C=C2C(F)(F)F
IC50 (HeLa [16]): 1100 nM

SMILES: COc1ccc(-c2cc(-c3cc4ccccc4oc3=O)nc(Cc3ccc(F)cc3)n2)cc1
IC50 (MCF7 [17]): 2230 nM

Second part, led by results:

IC50 (HeLa [1]): 1290 nM
SMILES: O=c1oc2ccccc2cc1-c1csc(N/N=C/c2c3ccccc3c(Cl)c3ccccc23)n1
IC50 [2]: 1660 nM

GI50 (AGS): < 410 nM
GI50 [3]: < 410 nM
GI50 (SNU1): < 410 nM
GI50 (SK-OV-3): < 410 nM
GI50 (OVCAR-8): < 410 nM
GI50 (BXPC-3): < 410 nM
GI50 (PANC-1): < 410 nM
GI50 (HepG2 [4]): < 410 nM
GI50 (K562): < 410 nM
GI50 (HeLa [5]): < 410 nM
SMILES: CCN(CC)c1ccc2cc(-c3nc4ccccc4n3C)c(=O)oc2c1
GI50 (T-24): < 410 nM
GI50 (WiDr): < 410 nM
GI50 (SN12C): < 410 nM

IC50 (MCF7 [9]): 54.9 µg/mL (≈ 125 µM)
IC50 (HCT-116): 30.7 µg/mL (≈ 70 µM)
SMILES: O=C(CSc1nnc(NC(=O)c2ccccc2)s1)Nc1ccc2oc(=O)ccc2c1

EC50 (HepG2 [10]): 3700 nM
SMILES: C/C(=N\Nc1ncc(C(=O)c2cc3ccccc3oc2=O)s1)c1ccc(C)cc1

EC50 (DLD-1): 5790 nM
SMILES: COc1ccc(/C(C)=N/Nc2ncc(C(=O)c3cc4ccccc4oc3=O)s2)cc1

IC50 (A549 [12]): 280 nM
SMILES: O=C(/C(Cl)=N/Nc1ccc([N+](=O)[O-])cc1)n1c(-c2cc3ccccc3oc2=O)nc2ccccc21

IC50 (HeLa [13]): 880 nM
IC50 (MCF7 [14]): 610 nM
SMILES: O=C(NCCOCc1no[n+]([O-])c1S(=O)(=O)c1ccccc1)c1cc2ccccc2oc1=O

IC50 (HeLa [15]): 210 nM
SMILES: Cc1nn(-c2ccccc2)c(=O)n1-n1c(-c2cc3ccccc3oc2=O)cs/c1=N\c1ccc(Cl)cc1

IC50 (HepG2 [18]): 3860 nM
SMILES: O=C(OCCCOc1no[n+]([O-])c1S(=O)(=O)c1ccccc1)c1cc2ccccc2oc1=O

IC50 (HepG2 [19]): 24.9 µg/mL (≈ 53.1 µM)
SMILES: COc1ccc(C(=O)Nc2nnc(SCC(=O)Nc3ccc4oc(=O)ccc4c3)s2)cc1
